This is an account of results in ChEMBL document CHEMBL1926646 (Bioorg Med Chem, 2011).

One data set deals with Dipeptidyl peptidase 8 (Homo sapiens, UniProt Q6V1X1). Kind of data set: Inhibition of human recombinant DPP-8 expressed in Sf9 cells using H-Gly-Pro-AMC as substrate preincubated for 30 mins before substrate addition measured after 20 mins by fluorescence assay.
Data set [1] is described as follows: Oral bioavailability in Sprague-Dawley rat at 5 mg/kg. The format is ADME, organism-based. The conditions noted are these: in vivo.
The nature of data set [2]: Drug level in Sprague-Dawley rat plasma at 3 mg/kg at Tmax. The format is ADME, organism-based. On the set-up: dose 3 mg/kg. The conditions noted are these: read-out: Drug uptake.
Data set [3] can be described thus: Cmax in Sprague-Dawley rat at 10 mg/kg, po. Also noted: dose 10 mg/kg, route oral. The format is ADME, organism-based. The following applies: in vivo.
A short description of data set [4]: Cmax in Sprague-Dawley rat at 3 mg/kg, po. Format: ADME, organism-based. On the set-up: dose 3 mg/kg, route oral. The following applies: in vivo.
A short description of data set [5]: Tmax in Sprague-Dawley rat at 10 mg/kg, po. Also noted: dose 10 mg/kg, route oral. The following applies: in vivo. Format: ADME, organism-based.
Data set [6] is described as follows: Tmax in Sprague-Dawley rat at 3 mg/kg, po. Format: ADME, organism-based. Also noted: dose 3 mg/kg, route oral. The following applies: in vivo.
Data set [7] in a line: Terminal half life in Sprague-Dawley rat at 10 mg/kg, po. The format is ADME, organism-based. The conditions noted are these: in vivo, read-out: beta t1/2 (converted). Also noted: dose 10 mg/kg, route oral.
In data set [8] the test system is Rattus norvegicus. Put plainly: AUC in Sprague-Dawley rat at 10 mg/kg, po. Format: ADME, organism-based, Plasma. On the set-up: dose 10 mg/kg, route oral. The conditions noted are these: in vivo.
The nature of data set [9]: Oral bioavailability in Sprague-Dawley rat at 10 mg/kg. The conditions noted are these: in vivo. The format is ADME, organism-based.
The nature of data set [10]: Total clearance in Beagle dog at 0.2 mg/kg, iv. The format is ADME, organism-based, Canis lupus familiaris. Also noted: dose 0.2 mg/kg, route intravenous. The conditions noted are these: in vivo.
In data set [11] the test system is Canis familiaris. Put plainly: Volume of distribution at steady state in Beagle dog at 0.2 mg/kg, iv. The format is ADME, organism-based, Canis lupus familiaris. Also noted: dose 0.2 mg/kg, route intravenous. The conditions noted are these: in vivo.
Data set [12] in a line: Cmax in Beagle dog at 0.5 mg/kg, po. Format: ADME, organism-based, Canis lupus familiaris. On the set-up: dose 0.5 mg/kg, route oral. The conditions noted are these: in vivo.
The nature of data set [13]: Tmax in Beagle dog at 0.5 mg/kg, po. Format: ADME, organism-based, Canis lupus familiaris. Also noted: dose 0.5 mg/kg, route oral. The conditions noted are these: in vivo.
Data set [14] is described as follows: Terminal half life in Beagle dog at 0.5 mg/kg, po. The format is ADME, organism-based, Canis lupus familiaris. The conditions noted are these: in vivo, read-out: beta t1/2 (converted). On the set-up: dose 0.5 mg/kg, route oral.
Data set [15] concerns Canis familiaris. Put plainly: AUC in Beagle dog at 0.5 mg/kg, po. The format is ADME, organism-based, Canis lupus familiaris, Plasma. Also noted: dose 0.5 mg/kg, route oral. The following applies: in vivo.
Data set [16] is described as follows: Oral bioavailability in Beagle dog at 0.5 mg/kg. Format: ADME, organism-based, Canis lupus familiaris. The conditions noted are these: in vivo.
Data set [17] can be described thus: Total clearance in Sprague-Dawley rat at 3 mg/kg, iv. The format is ADME, organism-based. On the set-up: dose 3 mg/kg, route intravenous. The following applies: in vivo.
Data set [18] has as its system Rattus norvegicus. Kind of data set: Volume of distribution at steady state in Sprague-Dawley rat at 3 mg/kg, iv. The conditions noted are these: in vivo. On the set-up: dose 3 mg/kg, route intravenous. The format is ADME, organism-based.
Data set [19] is described as follows: Plasma protein binding in rat at 20 ng/ml after 0.5 hrs by LC-MS/MS analysis. The format is ADME, cell-free. The following applies: read-out: PPB (converted).
Data set [20] in a line: Plasma protein binding in rat at 2000 ng/ml after 0.5 hrs by LC-MS/MS analysis. Format: ADME, cell-free. The following applies: read-out: PPB (converted).
Data set [21] is described as follows: Plasma protein binding in dog at 20 ng/ml after 0.5 hrs by LC-MS/MS analysis. The following applies: read-out: PPB (converted). The format is ADME, cell-free, Canis lupus familiaris.
Data set [22] can be described thus: Plasma protein binding in dog at 2000 ng/ml after 0.5 hrs by LC-MS/MS analysis. The following applies: read-out: PPB (converted). The format is ADME, cell-free, Canis lupus familiaris.
The nature of data set [23]: Plasma protein binding in human at 20 ng/ml after 0.5 hrs by LC-MS/MS analysis. Format: ADME, cell-free. The conditions noted are these: read-out: PPB (converted).
Data set [24] in a line: Plasma protein binding in human at 2000 ng/ml after 0.5 hrs by LC-MS/MS analysis. The format is ADME, cell-free. The following applies: read-out: PPB (converted).
Data set [25] concerns Rattus norvegicus. Kind of data set: Antidiabetic activity in Wistar/ST rat plasma assessed as reduction in glucose AUC (0 to 60 mins) at 10 mg/kg, po pretreated 30 mins before glucose challenge measured for 2 hrs by oral glucose tolerance test. The format is functional, organism-based. Also noted: dose 10 mg/kg.
Data set [26] has as its system Rattus norvegicus. Kind of data set: Inhibition of plasma DPP-4 activity in Wistar/ST rat at 10 mg/kg, po pretreated 30 mins before glucose challenge measured within 30 mins. Format: functional.
Data set [27] relates to Rattus norvegicus. Kind of data set: Inhibition of plasma DPP-4 activity in orally dosed Wistar/ST rat pretreated 30 mins before glucose challenge measured for 2 hrs during oral glucose tolerance test. Format: functional, organism-based.
The test system of data set [28] is Rattus norvegicus. Put plainly: Inhibition of plasma DPP-4 activity in Wistar/ST rat at 3 mg/kg, po pretreated 30 mins before glucose challenge measured for 2 hrs during oral glucose tolerance test. Format: functional.

Calls of active or inactive are those of the source. The rule behind the calls is not given here.

Sequence of Dipeptidyl peptidase 8 (Q6V1X1 whole entry): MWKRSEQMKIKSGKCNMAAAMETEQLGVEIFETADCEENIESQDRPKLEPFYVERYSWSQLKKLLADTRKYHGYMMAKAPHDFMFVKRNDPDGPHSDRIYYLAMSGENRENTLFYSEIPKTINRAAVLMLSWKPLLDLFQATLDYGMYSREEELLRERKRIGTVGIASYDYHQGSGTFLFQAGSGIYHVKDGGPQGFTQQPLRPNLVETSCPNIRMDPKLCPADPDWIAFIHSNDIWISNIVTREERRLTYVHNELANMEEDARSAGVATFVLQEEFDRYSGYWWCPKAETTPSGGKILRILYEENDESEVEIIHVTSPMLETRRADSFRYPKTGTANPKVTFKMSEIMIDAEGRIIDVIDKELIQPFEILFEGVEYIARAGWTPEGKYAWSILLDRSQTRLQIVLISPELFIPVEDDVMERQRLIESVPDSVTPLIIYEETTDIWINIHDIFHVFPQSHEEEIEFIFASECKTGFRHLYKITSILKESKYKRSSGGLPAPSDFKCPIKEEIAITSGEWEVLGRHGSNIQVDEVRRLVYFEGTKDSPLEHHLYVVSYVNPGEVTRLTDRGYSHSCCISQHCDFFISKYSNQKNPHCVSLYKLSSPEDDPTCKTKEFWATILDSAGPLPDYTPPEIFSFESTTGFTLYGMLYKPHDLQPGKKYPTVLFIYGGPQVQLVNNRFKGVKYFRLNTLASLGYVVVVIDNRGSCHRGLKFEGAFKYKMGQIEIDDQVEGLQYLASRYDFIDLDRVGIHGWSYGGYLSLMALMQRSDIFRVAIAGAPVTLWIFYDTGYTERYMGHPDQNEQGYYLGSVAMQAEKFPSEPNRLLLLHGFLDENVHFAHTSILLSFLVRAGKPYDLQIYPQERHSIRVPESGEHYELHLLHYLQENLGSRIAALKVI

Turning to `Cc1c(C(=O)NCC(C)(C)NCC(=O)N2CCC[C@H]2C#N)cnc2cc(C(C)(C)C)nn12`, the IC50 at Dipeptidyl peptidase 8 was above 100 µM.

For the molecule `Cc1cc2ncc(C(=O)NCC(C)(C)NCC(=O)N3CCC[C@H]3C#N)c(O)n2n1.Cl`, in [1], the bioavailability worked out at 4.1%.

Consider `Cc1nc2cc(C(C)(C)C)nn2c(C)c1C(=O)NCC(C)(C)NCC(=O)N1CCC[C@H]1C#N`, for which, on Dipeptidyl peptidase 8, the 50% inhibitory concentration (IC50) was above 100 µM.

`Cc1cc2ncc(C(=O)NCC(C)(C)NCC(=O)N3CCC[C@H]3C#N)c(C)n2n1.Cl`: the Cmax in [2] is 54 nM; in data set [3], 747 ng/mL; in [4] it was 68 ng/mL; in data set [12], 282 ng/mL. Moreover, the Tmax in [5] amounted to 0.25 h; in [6], 0.25 h; in data set [13] it was 1 h. Besides, the half-life in [7] is 1.9 h; in data set [14], 1.3 h. Further, the AUC came to 1110 ng·h/mL in the data set on Rattus norvegicus [8] and 6390 ng·h/mL with Canis familiaris [15]. For the same molecule, the results for the bioavailability in data set [9] and in [16] were 27% and 98%, respectively. In addition, the clearance in [10] is 10.3 mL/min/kg; in data set [17], 37.2 mL/min/kg. Besides, the Vdss in the data set on Canis familiaris [11] came out at 0.75 L/kg; in the data set on Rattus norvegicus [18], 1.61 L/kg. Further, the fraction unbound at 0.5 h, 20 ng/ml was 0.779 in data set [19], 0.775 in data set [21] and 0.811 in [23]. The values for the fraction unbound at 0.5 h, 2000 ng/ml in data set [20], in [22] and in data set [24] were 0.821, 0.801 and 0.784, respectively. Moreover, the outcome with Rattus norvegicus [25] was Active. In the data set with Rattus norvegicus [26], the inhibition in vivo at 10 mg/kg turned out to be 90%. Further, the inhibition entry with Rattus norvegicus [27] was “Dose-dependent effect”. Besides, the inhibition in vivo at 3 mg/kg with Rattus norvegicus [28] stood at 60%.

As usually defined, the IC50 is the concentration needed to halve the response being measured. What is called bioavailability is dose-corrected exposure relative to a reference, in per cent. Usually Tmax stands for the time from dosing to the highest level. For orientation: AUC means the area under the concentration-time curve, a measure of exposure. A lower AUC goes with less exposure. Usually clearance stands for the rate of elimination divided by the concentration. The low end stands for inefficient removal, the high end for efficient removal. By Vdss is commonly meant the apparent volume that relates the amount in the body to the concentration in plasma or blood. A higher Vdss goes with extensive tissue distribution. Broadly, the inhibition in vivo is the percentage by which the read-out fell short of the control.
